This note sets out measurements from US9533985B2, “Sulfonamide derivative and medicinal use thereof” (EA Pharma Co., Ltd., priority 2012, dated 2017).

This assay addresses α4β7 integrin (Homo sapiens (Human), UniProt P13612+P26010). In words: MAdCAM-1/α4β7 integrin binding inhibitory activity evaluation test in the presence of serum (2). In kind it is cell-based. The note with it: RPMI-8866 cells binding to mouse MAdCAM-1/Fc, same manner as Test (3), read-out: α4β7 Rank of activity with serum added. The gist of the method:
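Adhesion of human RPMI-8866 B cells (α4β7-expressing) to plate-bound recombinant mouse MAdCAM-1/Fc in DMEM binding buffer with 4 mM MnCl2 and 50% final human serum, 15–60 min at 30 °C. Bound cells quantified by LDH activity (A490) after lysis; IC50 relative to no-compound binding, duplicate.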

Chain of α4β7 integrin (P13612 34-1032): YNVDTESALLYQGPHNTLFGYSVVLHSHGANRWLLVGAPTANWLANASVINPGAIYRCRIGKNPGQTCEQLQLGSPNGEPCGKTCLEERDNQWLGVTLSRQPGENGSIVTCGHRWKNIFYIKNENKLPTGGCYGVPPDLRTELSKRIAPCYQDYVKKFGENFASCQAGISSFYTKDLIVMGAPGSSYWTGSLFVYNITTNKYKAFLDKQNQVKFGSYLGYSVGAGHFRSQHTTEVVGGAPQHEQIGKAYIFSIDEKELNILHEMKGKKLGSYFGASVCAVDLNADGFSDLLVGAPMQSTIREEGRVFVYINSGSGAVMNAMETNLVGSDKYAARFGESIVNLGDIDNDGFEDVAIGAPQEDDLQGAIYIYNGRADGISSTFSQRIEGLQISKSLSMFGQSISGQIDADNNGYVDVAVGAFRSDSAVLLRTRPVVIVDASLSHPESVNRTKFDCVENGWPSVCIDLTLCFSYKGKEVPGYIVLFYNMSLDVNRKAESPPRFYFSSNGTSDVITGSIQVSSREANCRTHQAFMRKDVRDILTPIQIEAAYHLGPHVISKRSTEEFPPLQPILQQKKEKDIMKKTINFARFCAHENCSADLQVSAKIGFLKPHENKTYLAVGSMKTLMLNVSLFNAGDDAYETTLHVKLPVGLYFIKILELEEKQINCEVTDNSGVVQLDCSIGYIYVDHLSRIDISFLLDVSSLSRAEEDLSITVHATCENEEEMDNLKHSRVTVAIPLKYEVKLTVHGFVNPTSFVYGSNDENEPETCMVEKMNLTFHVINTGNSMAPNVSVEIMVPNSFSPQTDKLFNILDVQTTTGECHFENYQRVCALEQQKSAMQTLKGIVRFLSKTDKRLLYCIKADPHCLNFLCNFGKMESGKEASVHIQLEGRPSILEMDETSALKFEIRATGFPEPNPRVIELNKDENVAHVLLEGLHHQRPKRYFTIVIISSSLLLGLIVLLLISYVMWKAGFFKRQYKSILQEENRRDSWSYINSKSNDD
Chain of α4β7 integrin (P26010 20-798): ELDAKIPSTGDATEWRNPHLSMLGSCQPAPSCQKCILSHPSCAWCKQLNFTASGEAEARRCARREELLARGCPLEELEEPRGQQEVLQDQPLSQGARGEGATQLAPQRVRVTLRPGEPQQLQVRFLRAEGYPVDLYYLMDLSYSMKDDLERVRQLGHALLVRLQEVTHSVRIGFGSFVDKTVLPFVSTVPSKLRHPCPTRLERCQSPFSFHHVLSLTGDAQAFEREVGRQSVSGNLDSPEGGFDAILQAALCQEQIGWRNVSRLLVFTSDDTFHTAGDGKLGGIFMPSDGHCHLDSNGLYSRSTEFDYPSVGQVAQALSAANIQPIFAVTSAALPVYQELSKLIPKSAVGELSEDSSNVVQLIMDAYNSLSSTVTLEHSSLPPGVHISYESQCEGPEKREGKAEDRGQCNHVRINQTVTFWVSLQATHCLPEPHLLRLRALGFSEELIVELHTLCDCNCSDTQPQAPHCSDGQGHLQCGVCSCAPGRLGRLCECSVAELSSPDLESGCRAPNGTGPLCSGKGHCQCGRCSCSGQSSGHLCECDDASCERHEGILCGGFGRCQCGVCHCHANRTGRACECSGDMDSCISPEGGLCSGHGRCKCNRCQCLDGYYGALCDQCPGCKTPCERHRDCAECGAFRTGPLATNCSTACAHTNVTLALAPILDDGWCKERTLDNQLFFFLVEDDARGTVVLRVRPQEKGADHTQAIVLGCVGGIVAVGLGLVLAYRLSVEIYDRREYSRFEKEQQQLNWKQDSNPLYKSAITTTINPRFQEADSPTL

Consider `Cn1c(=O)n(-c2ccc(C[C@H](NC(=O)c3cc(F)c(NS(=O)(=O)c4ccco4)cc3F)C(=O)O)cc2)c(=O)c2ccncc21` [Example 149, N-{2,5-Difluoro-4-[(2-furylsulfonyl)amino]benzoyl}-4-(1-methyl-2,4-dioxo-1,4-dihydropyrido[3,4-d]pyrimidin-3(2H)-yl)-L-phenylalanine], for which the IC50 was in the range of 10 to 50 nM.
In the case of `Cn1c(=O)n(-c2ccc(C[C@H](NC(=O)c3c(F)cc(NS(=O)(=O)c4ccccc4O)cc3F)C(=O)O)nc2)c(=O)c2ccncc21` [Example 185, N-(2,6-Difluoro-4-{[(2-hydroxyphenyl)sulfonyl]amino}benzoyl)-3-[5-(1-methyl-2,4-dioxo-1,4-dihydropyrido[3,4-d]pyrimidin-3(2H)-yl)pyridin-2-yl]-L-alanine] it was 10 to 50 nM; in that of `COc1ccccc1S(=O)(=O)Nc1cc(F)c(C(=O)N[C@@H](Cc2ccc(-n3c(=O)c4ccncc4n(C)c3=O)cc2)C(=O)O)c(F)c1` [Example 143, N-(2,6-Difluoro-4-{[(2-methoxyphenyl)sulfonyl]amino}benzoyl)-4-(1-methyl-2,4-dioxo-1,4-dihydropyrido[3,4-d]pyrimidin-3(2H)-yl)-L-phenylalanine], not above 10 nM; in that of `CCNC(=O)c1ccc(S(=O)(=O)Nc2cc(F)c(C(=O)N[C@@H](Cc3ccc(-n4c(=O)cc(C(C)C)n(C)c4=O)cc3)C(=O)O)c(F)c2)cc1` [Example 156, N-{4-[({4-[(Ethylamino)carbonyl]phenyl}sulfonyl)amino]-2,6-difluorobenzoyl}-4-(4-isopropyl-3-methyl-2,6-dioxo-3,6-dihydropyrimidin-1(2H)-yl)-L-phenylalanine], 10 to 50 nM.
In the case of `Cn1ccc(=O)n(-c2ccc(C[C@H](NC(=O)c3c(F)cc(NS(=O)(=O)c4ccc(C(=O)NC(C)(C)C)cc4)cc3F)C(=O)O)cc2)c1=O` [Example 167, N-{4-[({4-[(tert-Butylamino)carbonyl]phenyl}sulfonyl)amino]-2,6-difluorobenzoyl}-4-(3-methyl-2,6-dioxo-3,6-dihydropyrimidin-1(2H)-yl)-L-phenylalanine] it was not above 10 nM; in that of `Cn1c(=O)n(-c2ccc(C[C@H](NC(=O)c3ncc(NS(=O)(=O)c4ccncc4)cc3F)C(=O)O)cc2)c(=O)c2ccncc21` [Example 184, N-({3-Fluoro-5-[(pyridin-4-yl-sulfonyl)amino]pyridin-2-yl}carbonyl)-4-(1-methyl-2,4-dioxo-1,4-dihydropyrido[3,4-d]pyrimidin-3(2H)-yl)-L-phenylalanine], 10 to 50 nM.
In the case of `Cn1c(=O)n(-c2ccc(C[C@H](NC(=O)c3cc(F)c(NS(=O)(=O)c4ccc(-n5cncn5)cc4)cc3F)C(=O)O)cc2)c(=O)c2ccncc21` [Example 225, N-[2,5-Difluoro-4-({[4-(1H-1,2,4-triazol-1-yl)phenyl]sulfonyl}amino)benzoyl]-4-(1-methyl-2,4-dioxo-1,4-dihydropyrido[3,4-d]pyrimidin-3(2H)-yl)-L-phenylalanine] it was 10 to 50 nM; in that of `Cn1c(=O)n(-c2ccc(C[C@H](NC(=O)c3ccc(NS(=O)(=O)c4ccccn4)cc3F)C(=O)O)nc2)c(=O)c2ccncc21` [Example 142, N-{2-Fluoro-4-[(pyridin-2-yl-sulfonyl)amino]benzoyl}-3-[5-(1-methyl-2,4-dioxo-1,4-dihydropyrido[3,4-d]pyrimidin-3(2H)-yl)pyridin-2-yl]-L-alanine], 10 to 50 nM.
As for `CC(=O)c1ccc(S(=O)(=O)Nc2cc(F)c(C(=O)N[C@@H](Cc3ccc(-n4c(=O)c5ccncc5n(C)c4=O)cn3)C(=O)O)cc2F)cc1` [Example 141, N-(4-{[(4-Acetylphenyl)sulfonyl]amine}-2,5-difluorobenzoyl)-3-[5-(1-methyl-2,4-dioxo-1,4-dihydropyrido[3,4-d]pyrimidin-3(2H)-yl)pyridin-2-yl]-L-alanine], the IC50 is 10 to 50 nM.
Consider `Cn1c(=O)n(-c2ccc(C[C@H](NC(=O)c3c(F)cc(NS(=O)(=O)c4ccc(-c5ccsc5)cc4)cc3F)C(=O)O)nc2)c(=O)c2ccncc21` [Example 178, N-[2,6-Difluoro-4-({[4-(3-thienyl)phenyl]sulfonyl}amino)benzoyl]-3-[5-(1-methyl-2,4-dioxo-1,4-dihydropyrido[3,4-d]pyrimidin-3(2H)-yl)pyridin-2-yl]-L-alanine], for which the IC50 was in the range of 10 to 50 nM.
In the case of `Cn1c(=O)n(-c2ccc(C[C@H](NC(=O)c3ccc(NS(=O)(=O)c4ccc[nH]4)cc3F)C(=O)O)nc2)c(=O)c2ccncc21` [Example 182, N-{2-Fluoro-4-[(1H-pyrrol-2-yl-sulfonyl)amino]benzoyl}-3-[5-(1-methyl-2,4-dioxo-1,4-dihydropyrido[3,4-d]pyrimidin-3(2H)-yl)pyridin-2-yl]-L-alanine] it was 10 to 50 nM.
As for `Cn1c(=O)n(-c2ccc(C[C@H](NC(=O)c3cc(F)c(NS(=O)(=O)c4ccccc4)cc3F)C(=O)O)nc2)c(=O)c2ccncc21` [Example 137, N-{2,5-Difluoro-4-[(phenylsulfonyl)amino]benzoyl}-3-[5-(1-methyl-2,4-dioxo-1,4-dihydropyrido[3,4-d]pyrimidin-3(2H)-yl)pyridin-2-yl]-L-alanine], the figure is 50 to 200 nM; as for `Cn1c(=O)n(-c2ccc(C[C@H](NC(=O)c3cc(F)c(NS(=O)(=O)c4ccc(-c5cnc(N6CCC6)nc5)cc4)cc3F)C(=O)O)nc2)c(=O)c2ccncc21` [Example 232, N-[4-({[4-(2-Azetidin-1-ylpyrimidin-5-yl)phenyl]sulfonyl}amino)-2,5-difluorobenzoyl]-3-[5-(1-methyl-2,4-dioxo-1,4-dihydropyrido[3,4-d]pyrimidin-3(2H)-yl)pyridin-2-yl]-L-alanine], 50 to 200 nM.
In the case of `Cn1c(=O)n(-c2ccc(C[C@H](NC(=O)c3c(F)cc(NS(=O)(=O)c4ccc(C(=O)NC5CCCC5)cc4)cc3F)C(=O)O)cc2)c(=O)c2ccncc21` [Example 166, N-{4-[({4-[(Cyclopentylamino)carbonyl]phenyl}sulfonyl)amino]-2,6-difluorobenzoyl}-4-(1-methyl-2,4-dioxo-1,4-dihydropyrido[3,4-d]pyrimidin-3(2H)-yl)-L-phenylalanine] it was 10 to 50 nM; in that of `CCc1ncc(-c2ccc(S(=O)(=O)Nc3cc(F)c(C(=O)N[C@@H](Cc4ccc(-n5c(=O)c6ccncc6n(C)c5=O)nc4)C(=O)O)cc3F)cc2)cn1` [Example 238, N-[4-({[4-(2-Ethylpyrimidin-5-yl)phenyl]sulfonyl}amino)-2,5-difluorobenzoyl]-3-[6-(1-methyl-2,4-dioxo-1,4-dihydropyrido[3,4-d]pyrimidin-3(2H)-yl)pyridin-3-yl]-L-alanine], not above 10 nM; in that of `Cn1ccc(=O)n(-c2ccc(C[C@H](NC(=O)c3c(F)cc(NS(=O)(=O)c4ccc(C(=O)C5CC5)cc4)cc3F)C(=O)O)cc2)c1=O` [Example 174, N-[4-({[4-(Cyclopropylcarbonyl)phenyl]sulfonyl}amino)-2,6-difluorobenzoyl]-4-(3-methyl-2,6-dioxo-3,6-dihydropyrimidin-1(2H)-yl)-L-phenylalanine], 10 to 50 nM.
For `Cn1c(=O)n(-c2ccc(C[C@H](NC(=O)c3cc(F)c(NS(=O)(=O)c4ccc(-c5cncnc5)cc4)cc3F)C(=O)O)nc2)c(=O)c2ccncc21` [Example 215, N-(2,5-Difluoro-4-{[(4-pyrimidin-5-ylphenyl)sulfonyl]amino}benzoyl)-3-[5-(1-methyl-2,4-dioxo-1,4-dihydropyrido[3,4-d]pyrimidin-3(2H)-yl)pyridin-2-yl]-L-alanine], the IC50 fell in the range of 10 to 50 nM.
